Data on three compounds can be found in ChEMBL document CHEMBL1201862, “PubChem BioAssay data set” (2004).

A word on the IC50: it is the concentration that inhibits the measured activity by half.

Calls of active or inactive are those of the source. No stated cut-off is given here; in the data, actives have a measured IC50 and inactives only a lower limit.

Chain of Envelope glycoprotein gp160 (Q6QLK5 whole entry, the tested form may be a part): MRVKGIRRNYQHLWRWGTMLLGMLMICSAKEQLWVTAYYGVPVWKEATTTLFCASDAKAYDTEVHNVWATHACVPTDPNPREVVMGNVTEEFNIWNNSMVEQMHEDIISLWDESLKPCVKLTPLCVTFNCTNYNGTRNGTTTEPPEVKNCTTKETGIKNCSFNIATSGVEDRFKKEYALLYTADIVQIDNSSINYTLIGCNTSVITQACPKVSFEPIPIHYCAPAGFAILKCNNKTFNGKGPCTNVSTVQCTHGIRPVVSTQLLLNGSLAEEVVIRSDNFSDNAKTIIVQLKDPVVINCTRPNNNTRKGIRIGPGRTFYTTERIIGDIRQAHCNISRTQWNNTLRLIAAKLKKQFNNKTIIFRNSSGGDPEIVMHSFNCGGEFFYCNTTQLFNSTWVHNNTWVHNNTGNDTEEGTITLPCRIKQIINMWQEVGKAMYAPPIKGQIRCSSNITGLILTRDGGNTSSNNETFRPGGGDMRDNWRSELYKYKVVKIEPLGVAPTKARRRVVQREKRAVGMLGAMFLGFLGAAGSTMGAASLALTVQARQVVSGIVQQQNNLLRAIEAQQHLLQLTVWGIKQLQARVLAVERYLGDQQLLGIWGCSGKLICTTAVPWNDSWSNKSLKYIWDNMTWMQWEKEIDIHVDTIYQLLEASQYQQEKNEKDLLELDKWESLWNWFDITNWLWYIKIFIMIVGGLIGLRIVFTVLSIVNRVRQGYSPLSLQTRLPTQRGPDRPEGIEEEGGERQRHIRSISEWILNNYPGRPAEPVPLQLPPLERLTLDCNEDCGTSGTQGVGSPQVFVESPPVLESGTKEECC

The experiment has as its target Envelope glycoprotein gp160 (Human immunodeficiency virus 1, UniProt Q6QLK5). The experiment is described as follows: inhibitors of HIV fusion peptide binding, primary screen, biochemical, uHTS, fluorescence dequenching (AID 1986).
As for `CCS(=O)(=O)C1=NSC2=NC(=O)/C(=C\c3ccc(OS(=O)(=O)c4ccccc4)c(OC)c3)C(=N)N21`, the half-maximal inhibitory concentration (IC50) was 16.8 µM (active). Consider `CCOc1ccc2nc(NC(=O)CSc3nc(O)c(C#N)c(-c4ccccc4)n3)sc2c1`, for which the half-inhibitory concentration (IC50) is 11.1 µM (active).

`O=C(NN1C(=O)/C(=C/c2ccc(O)cc2)SC1=S)c1ccccc1O`: the half-inhibitory concentration (IC50) is 23.6 µM (active).
